From publication doi:10.1101/2020.10.13.337584v1 (bioRxiv, 2020)

How the values were obtained:
[1] = tested on: SARS-CoV2 (SARS CoV-2 USA_WA1/2020) in VERO E6 cells; format: cell-based
[2] = Health-related side-effects after daily intranasal administration; format: in vivo; conditions: 0.1 mg/Kg intranasal daily for 10 days, BALB/C mice

## CC(C)[C@H](NC(=O)CNC(=O)[C@H](CC(N)=O)NC(=O)[C@@H](NC(=O)[C@@H]1CCCN1C(=O)[C@H](CCC(N)=O)NC(=O)[C@H](Cc1ccccc1)NC(=O)CNC(=O)[C@H](Cc1ccc(O)cc1)NC(=O)CCCC[C@@H]1SC[C@@H]2NC(=O)N[C@@H]21)[C@@H](C)O)C(=O)NCC(=O)N[C@@H](Cc1ccc(O)cc1)C(=O)N[C@@H](CCC(N)=O)C(=O)N1CCC[C@H]1C(=O)O [KEpTide 1]
[1]
  Grey density (1:20) of crystal violet staining of agar monolayer: 34 ± 32.73
[2]
  Skin roughness or diarrhea at the end of day 10: did not see other health issue
[2]; n=6 per group, p = 0.0758
  Effect on heart rate: did not cause any loss
[2]; n=6 per group, p = 0.3217
  Effect on respiratory health (oxygen saturation): did not cause any loss
[2]; n=6 per group, p = 0.5541
  Effect on body temperature: did not cause any loss
